{"source": "patent US7102009B2", "about": "“Substituted amine derivatives and methods of use” (Amgen Inc., priority 2001, dated 2006)", "data": [{"test_system": "Human Umbilical Vein Endothelial cells (VEGF-stimulated HUVEC proliferation)", "experiment": "HUVEC Proliferation Assay (VEGF-stimulated)", "assay_type": "cell-based", "settings": "VEGF 50 ng/mL, 72 h incubation, CyQuant readout, read-out: inhibited VEGF-stimulated HUVEC proliferation at a level below (IC50)", "protocol": "Human Umbilical Vein Endothelial cells are purchased from Clonetics, Inc., as cryopreserved cells harvested from a pool of donors. These cells, at passage 1, are thawed and expanded in EBM-2 complete medium, until passage 2 or 3. The cells are trypsinized, washed in DMEM+10% FBS+antibiotics, and spun at 1000 rpm for 10 min. Prior to centrifugation of the cells, a small amount is collected for a cell count. After centrifugation, the medium is discarded, and the cells are resuspended in the appropriate volume of DMEM+10% FBS+antibiotics to achieve a concentration of 3×10^5 cells/mL. Another cell count is performed to confirm the cell concentration. The cells are diluted to 3×10^4 cells/mL in DMEM+10% FBS+antibiotics, and 100 μL of cells are added to a 96-well plate. The cells are incubated at 37° C. for 22 h.\nPrior to the completion of the incubation period, compound dilutions are prepared. Five-point, five-fold serial dilutions are prepared in DMSO, at concentrations 400-fold greater than the final concentrations desired. 2.5 μL of each compound dilution are diluted further in a total of 1 mL DMEM+10% FBS+antibiotics (400× dilution). Medium containing 0.25% DMSO is also prepared for the 0 μM compound sample. At the 22-hour timepoint, the medium is removed from the cells, and 100 μL of each compound dilution is added. The cells are incubated at 37° C. for 2-3 h.\nDuring the compound pre-incubation period, the growth factors are diluted to the appropriate concentrations. Solutions of DMEM+10% FBS+antibiotics, containing either VEGF or bFGF at the following concentrations: 50, 10, 2, 0.4, 0.08, and 0 ng/mL are prepared. For the compound-treated cells, solutions of VEGF at 550 ng/mL or bFGF at 220 ng/mL for 50 ng/mL or 20 ng/mL final concentrations, respectively, are prepared since 10 μL of each will be added to the cells (110 μL final volume). At the appropriate time after adding the compounds, the growth factors are added. VEGF is added to one set of plates, while bFGF is added to another set of plates. For the growth factor control curves, the media on wells B4-G6 of plates 1 and 2 are replaced with media containing VEGF or bFGF at the varying concentrations (50-0 ng/mL). The cells are incubated at 37° C. for an additional 72 h.\nAt the completion of the 72 h incubation period, the medium is removed, and the cells are washed twice with PBS. After the second wash with PBS, the plates are tapped gently to remove excess PBS, and the cells are placed at −70° C. for at least 30 min. The cells are thawed and analyzed using the CyQuant fluorescent dye (Molecular Probes C-7026), following the manufacturer's recommendations. The plates are read on a Victor/Wallac 1420 workstation at 485 nm/530 nm (excitation/emission). Raw data are collected and analyzed using a 4-parameter fit equation in XLFit. IC50 values are then determined.", "units": {"IC50": "µM"}, "values": [{"smiles": "CC(C)(C)c1ccc(NC(=O)c2cccnc2Nc2ccc3cn[nH]c3c2)cc1", "note": "[Example 8, N-[4-(tert-Butyl)phenyl][2-(1H-indazol-6-ylamino)(3-pyridyl)]carboxamide]", "IC50": "< 0.05"}, {"smiles": "CC(C)(C)c1ccc(NC(=O)c2ccc(F)nc2Nc2ccc3cn[nH]c3c2)cc1", "note": "[Example 66, N-[4-(tert-Butyl)phenyl][6-fluoro-2-(1H-indazol-6-ylamino)(3-pyridyl)]carboxamide]", "IC50": "< 0.05"}, {"smiles": "O=C(Nc1cc(NC(=O)c2cccnc2Nc2ccc3cn[nH]c3c2)cc(C(F)(F)F)c1)O[C@H]1CCOC1", "note": "[Example 581, (3S)-Tetrahydro-3-furanyl 3-(((2-(1H-indazol-6-ylamino)-3-pyridinyl)carbonyl)amino)-5-(trifluoromethyl)phenylcarbamate]", "IC50": "< 0.05"}, {"smiles": "CC1(C)CN(CC2CCNCC2)c2cc(NC(=O)c3cccnc3Nc3ccc4cn[nH]c4c3)ccc21", "note": "[Example 41, N-[3,3-Dimethyl-1-(4-piperidylmethyl)indolin-6-yl][2-(1H-indazol-6-ylamino)(3-pyridyl)]carboxamide]", "IC50": "< 0.05"}, {"smiles": "CC(C)Oc1ccc(NC(=O)c2cccnc2Nc2ccc3cn[nH]c3c2)cc1", "note": "[Example 28, [2-(1H-Indazol-6-ylamino)(3-pyridyl)]-N-[4-(methylethoxy)phenyl]carboxamide]", "IC50": "< 0.05"}, {"smiles": "CN1CCN(CCCc2ccc(NC(=O)c3cccnc3Nc3ccc4cn[nH]c4c3)cc2)CC1", "note": "[Example 61, [2-(1H-Indazol-6-ylamino)(3-pyridyl)]-N-{4-[3-(4-methylpiperazinyl)propyl]phenyl}carboxamide]", "IC50": "< 0.05"}, {"smiles": "NS(=O)(=O)c1cc(NC(=O)c2cccnc2Nc2ccc3cn[nH]c3c2)ccc1Cl", "note": "[Example 13, N-3-aminosulfonyl(4-chloro-phenyl)[2-(1H-indazol-6-ylamino)(3-pyridyl)]carboxamide]", "IC50": "< 0.05"}, {"smiles": "O=C(Nc1ccc(C(F)(F)F)c(OCCN2CCCC2)c1)c1cccnc1Nc1ccc2cn[nH]c2c1", "note": "[Example 86, 2-(1H-Indazol-6-ylamino)-N-[3-(2-pyrrolidin-1-yl-ethoxy)-4-trifluoromethyl-phenyl]-nicotinamide]", "IC50": "< 0.05"}, {"smiles": "CC1(C)NS(=O)(=O)c2cc(NC(=O)c3cccnc3Nc3ccc4cn[nH]c4c3)ccc21", "note": "[Example 76, N-(3,3-Dimethyl-1,1-dioxo-2,3-dihydro-1H-116-benzo[d]isothiazol-6-yl)-2-(1H-indazol-6-ylamino)-nicotinamide]", "IC50": "< 0.05"}, {"smiles": "CC(C)(C)c1ccc(NC(=O)c2cccnc2Nc2ccc3cn[nH]c3c2)cc1CCCN1CCCC1", "note": "[Example 56, N-[4-(tert-Butyl)-3-(3-pyrrolidinylpropyl)phenyl][2-(1H-indazol-6-ylamino)(3-pyridyl)]carboxamide]", "IC50": "< 0.05"}, {"smiles": "CN1CCN(c2cc(NC(=O)c3cccnc3Nc3ccc4cn[nH]c4c3)ccc2C(C)(C)C)CC1", "note": "[Example 31, N-[4-(tert-Butyl)-3-(4-methylpiperazinyl)phenyl][2-(1H-indazol-6-ylamino)(3-pyridyl)]carboxamide]", "IC50": "< 0.05"}, {"smiles": "CN1CCC(C(C)(C)c2ccc(NC(=O)c3cccnc3Nc3ccc4cn[nH]c4c3)cc2)CC1", "note": "[Example 88, 2-(1H-Indazol-6-ylamino)-N-{4-[1-methyl-1-(1-methyl-piperidin-4-yl)-ethyl]-phenyl}-nicotinamide]", "IC50": "< 0.05"}, {"smiles": "CN(C)CC(=O)N1CC(C)(C)c2ccc(NC(=O)c3cccnc3Nc3ccc4cn[nH]c4c3)cc21", "note": "[Example 107, N-[1-(2-Dimethylamino-acetyl)-3,3-dimethyl-2,3-dihydro-1H-indol-6-yl]-2-(1H-indazol-6-ylamino)-nicotinamide]", "IC50": "< 0.05"}, {"smiles": "O=C(Nc1ccc(C(F)(F)F)c(OC[C@H]2CCCN2)c1)c1cccnc1Nc1ccc2cn[nH]c2c1", "note": "[Example 85, 2-(1H-Indazol-6-ylamino)-N-[3-(pyrrolidin-2-ylmethoxy)-4-trifluoromethyl-phenyl]-nicotinamide]", "IC50": "< 0.05"}, {"smiles": "CC(C)(C)OC(=O)N1CCC[C@H]1COc1cc(NC(=O)c2cccnc2Nc2ccc3cn[nH]c3c2)ccc1C(C)(C)C", "note": "[Example 95, 1-Boc-2-(2-tert-Butyl-5-{[2-(1H-indazol-6-ylamino)-pyridine-3-carbonyl]-amino}-phenoxymethyl)-pyrrolidine]", "IC50": "< 0.05"}, {"smiles": "CC(=O)N1Cc2cc(NC(=O)c3cccnc3Nc3ccc4cn[nH]c4c3)ccc2C(C)(C)C1", "note": "[Example 94, N-(2-Acetyl-4,4-dimethyl-1,2,3,4-tetrahydro-isoquinolin-7-yl)-2-(1H-indazol-6-ylamino)-nicotinamide]", "IC50": "< 0.05"}, {"smiles": "O=C(Nc1cc(CN2CCNCC2)cc(C(F)(F)F)c1)c1cccnc1Nc1ccc2cn[nH]c2c1", "note": "[Example 125, 2-(1H-Indazol-6-ylamino)-N-(3-piperazin-1-ylmethyl-5-trifluoromethyl-phenyl)-nicotinamide]", "IC50": "< 0.05"}, {"smiles": "O=C(Nc1cc(OCC2CCNCC2)cc(C(F)(F)F)c1)c1cccnc1Nc1ccc2cn[nH]c2c1", "note": "[Example 75, 2-(1H-Indazol-6-ylamino)-N-[3-(piperidin-4-ylmethoxy)-5-trifluoromethyl-phenyl]-nicotinamide]", "IC50": "< 0.05"}, {"smiles": "CC(C)N1CCC[C@H]1COc1cc(NC(=O)c2cccnc2Nc2ccc3cn[nH]c3c2)cc(C(F)(F)F)c1", "note": "[Example 583, 2-(1H-Indazol-6-ylamino)-N-(3-((((2S)-1-(1-methylethyl)-2-pyrrolidinyl)methyl)oxy)-5-(trifluoromethyl)phenyl)-3-pyridinecarboxamide]", "IC50": "< 0.05"}, {"smiles": "CS(=O)(=O)c1ccc(NC(=O)c2cccnc2Nc2ccc3cn[nH]c3c2)cc1", "note": "[Example 46, [2-(1H-Indazol-6-ylamino)(3-pyridyl)]-N-[4-(methylsulfonyl)phenyl]carboxamide]", "IC50": "< 0.05"}, {"smiles": "CC1(C)CNc2cc(NC(=O)c3cccnc3Nc3ccc4cn[nH]c4c3)ccc2O1", "note": "[Example 101, N-(2,2-Dimethyl-3,4-dihydro-2H-benzo[1,4]oxazin-6-yl)-2-(1H-indazol-6-ylamino)-nicotinamide]", "IC50": "< 0.05"}, {"smiles": "CC1(C)CCNc2cc(NC(=O)c3cccnc3Nc3ccc4c(c3)C(=O)NC4)ccc21", "note": "[Example 629, N-(4,4-Dimethyl-1,2,3,4-tetrahydro-isoguinolin-7-yl)-2-(1-oxo-2,3-dihydro-1H-isoindol-4-ylamino)-nicotinamide]", "IC50": "< 0.05"}, {"smiles": "CC(=O)N1CC(C)(C)Oc2ccc(NC(=O)c3cccnc3Nc3ccc4cn[nH]c4c3)cc21", "note": "[Example 89, N-(4-Acetyl-2,2-dimethyl-3,4-dihydro-2H-benzo[1,4]oxazin-6-yl)-2-(1H-indazol-6-ylamino)-nicotinamide]", "IC50": "< 0.05"}, {"smiles": "O=C(Nc1ccc(C(F)(F)F)cc1)c1cccnc1Nc1ccc2cn[nH]c2c1", "note": "[Example 50, [2-(1H-Indazol-6-ylamino)(3-pyridyl)]-N-[4-(trifluoromethyl)phenyl]carboxamide]", "IC50": "< 0.05"}, {"smiles": "CC(C)(CCN1CCOCC1)c1ccc(NC(=O)c2cccnc2Nc2ccc3cn[nH]c3c2)cc1", "note": "[Example 63, N-[4-(1,1-Dimethyl-3-morpholin-4-ylpropyl)phenyl][2-(1H-indazol-6-ylamino)(3-pyridyl)]carboxamide]", "IC50": "< 0.05"}, {"smiles": "CN1CC=C(c2cc(NC(=O)c3cccnc3Nc3ccc4cn[nH]c4c3)cc(C(F)(F)F)c2)CC1", "note": "[Example 121, 2-(1H-Indazol-6-ylamino)-N-[3-(1-methyl-1,2,3,6-tetrahydro-pyridin-4-yl)-5-trifluoromethyl-phenyl]-nicotinamide]", "IC50": "< 0.05"}, {"smiles": "O=C(Nc1ccc(C(F)(F)C(F)(F)F)c(OC[C@@H]2CCCN2)c1)c1cccnc1Nc1ccc2cn[nH]c2c1", "note": "[Example 83, 2-(1H-Indazol-6-ylamino)-N-[4-pentafluoroethyl-3-(2S-pyrrolidin-2-ylmethoxy)-phenyl]-nicotinamide]", "IC50": "< 0.05"}, {"smiles": "O=C(Nc1ccc(C(OCCN2CCCCC2)(C(F)(F)F)C(F)(F)F)cc1)c1cccnc1Nc1ccc2cn[nH]c2c1", "note": "[Example 65, [2-(1H-Indazol-6-ylamino)(3-pyridyl)]-N-{4-[2,2,2-trifluoro-1-(2-piperidylethoxy)-1-(trifluoromethyl)ethyl]phenyl}carboxamide]", "IC50": "< 0.05"}, {"smiles": "CC(C)(C)c1ccc(NC(=O)c2cccnc2Nc2ccc3cn[nH]c3c2)cc1NC1CCNCC1", "note": "[Example 124, N-[4-tert-Butyl-3-(piperidin-4-ylamino)-phenyl]-2-(1H-indazol-6-ylamino)-nicotinamide]", "IC50": "< 0.05"}]}]}
